Key:
[1] = tested on: hair growth of hamster flank organs; assay: Golden Syrian hamster assay (flank organ hair mass); type: in vivo; details: topical, thirteen applications; for Hair Mass (mg) ± SEM, Treated: 10 μl once a day; for % Reduction (of hair growth): vs vehicle treated side
Description: Male intact Golden Syrian hamsters are considered acceptable models for human beard hair growth in that they display oval shaped flank organs, one on each side, each about 8 mm. in major diameter, which grow thick black and coarse hair similar to human beard hair. These organs produce hair in response to androgens in the hamster. To evaluate the effectiveness of a composition including an inhibitor of a cholesterol synthetic pathway enzyme, the flank organs of each of a group of hamsters are depilated by applying a thioglycolate based chemical depilatory (Surgex) and/or shaved. To one organ of each animal 10 μl. of vehicle alone once a day is applied, while to the other organ of each animal an equal amount of vehicle containing an inhibitor of a cholesterol synthetic pathway enzyme is applied. After thirteen applications (one application per day for five days a week), the flank organs are shaved and the amount of recovered hair (hair mass) from each is weighed. Percent-reduction of hair growth is calculated by subtracting the hair mass (mg) value of the test compound treated side from the hair mass value of the vehicle treated side; the delta value obtained is then divided by the hair mass value of the vehicle treated side, and the resultant number is multiplied by 100.
The above-described assay will be referred to herein as the "Golden Syrian hamster" assay.

HMG CoA reductase = assay: HMGCoA reductase assay in extracts of hair follicles from hamster flank organ; type: biochemical; details: tested at 14 μM, 1 hour incubation
[2] = dose 10%, Vehicle A (40% acetone, 40% dipropylene glycol, 20% dimethyl sulfoxide)
[3] = dose 10%, Vehicle C (85% dimethyl sulfoxide, 10% benzyl alcohol, 5% NMP)
[4] = dose 5%, Vehicle C (85% dimethyl sulfoxide, 10% benzyl alcohol, 5% NMP)
[5] = dose 5%, Vehicle B (100% dimethyl sulfoxide)

Q: What does the source list for CCC(C)(C)C(=O)O[C@H]1C[C@@H](C)C=C2C=C[C@H](C)[C@H](CC[C@@H]3C[C@@H](O)CC(=O)O3)[C@H]21 (relative stereo) [Simivistatin, 1S-[1α,3α,7β,8β(2S*,4S*),8aβ]]-1,2,3,7,8,8a-hexahydro-3,7-dimethyl-8-[2-tetrahydro-4-hydroxy-6-oxo-2H-pyran-2-yl)ethyl]-1-napthalenyl-2,2-dimethyl-butanoic acid]?
A: Hair Mass (mg) ± SEM, Treated [1, 2]: 0.60 ± 0.11 mg; % Reduction (of hair growth) [1, 2]: 61 ± 7%; inhibition of HMG CoA reductase activity (HMG CoA reductase): 100%

Q: Which results are given for CC(C)CCC[C@@H](C)[C@H]1CC[C@H]2[C@@H]3C(=O)C=C4C[C@@H](O)CC[C@]4(C)[C@H]3CC[C@]12C [7-Ketocholesterol, 5-cholesten-3β-Ol-7-one]?
A: Hair Mass (mg) ± SEM, Treated [1, 3]: 1.01 ± 0.1 mg; % Reduction (of hair growth) [1, 3]: 54 ± 7%

Q: What does the source list for C[C@H](CCCC(C)(C)O)[C@H]1CC[C@H]2[C@@H]3CC=C4C[C@@H](O)CC[C@]4(C)[C@H]3CC[C@]12C [25-Hydroxycholesterol, 25-hydroxycholesterol]?
A: Hair Mass (mg) ± SEM, Treated [1, 4]: 1.04 ± 0.10 mg; % Reduction (of hair growth) [1, 4]: 17 ± 9%

Q: CC[C@H](C)C(=O)O[C@H]1C[C@@H](C)C=C2C=C[C@H](C)[C@H](CC[C@@H]3C[C@@H](O)CC(=O)O3)[C@H]21 [Lovastatin, 1S-[1S-[1α(R*),3α,7β,8β(2S*,4S*),8αβ]]-1,2,3,7,8,8a-hexahydro-3,7-dimethyl-8-[2-(tetrahydro-4-hydroxy-6-oxo-2H-pyran-2-yl)ethyl]-1-naphthalenyl 2-methylbutanoate] was tested. Which “Hair Mass (mg) ± SEM, Treated” value [1, 2] did it give?
A: 0.81 ± 0.13 mg

Q: And the “% Reduction (of hair growth)” value [1, 2]?
A: 63±4%

Q: Which results are given for CC[C@H](C)C(=O)O[C@H]1CCC=C2C=C[C@H](C)[C@H](CC[C@@H]3C[C@@H](O)CC(=O)O3)[C@H]21 [Mevastatin, mevastatin]?
A: Hair Mass (mg) ± SEM, Treated [1, 5]: 1.09 ± 0.07 mg; % Reduction (of hair growth) [1, 5]: 19 ± 7%

— patent US5840752A, “Reduction of hair growth” (priority 1996, dated 1998)
